In paper PMC10861852, “Loss of activation by GABA in vertebrate delta ionotropic glutamate receptors” (Proceedings of the National Academy of Sciences of the …, 2024):
Residue numbers refer to the chain shown, from its start.

Assays:
AcaGluD = molecular target: T1, AcaGluD (Acanthaster planci, UniProt A0A8B7XXR5); assay: Two-electrode voltage clamp, ligand-gated currents in oocytes; assay type: cell-based; details: for inhibition of GABA-gated current / currents elicited when applied alone / enhancement of glutamate-gated currents: 100 μM; for inhibition of GABA-gated current: coapplied with ~EC30 GABA concentration; for enhancement of glutamate-gated currents: n = 5
T1 sequence (A0A8B7XXR5 24-958): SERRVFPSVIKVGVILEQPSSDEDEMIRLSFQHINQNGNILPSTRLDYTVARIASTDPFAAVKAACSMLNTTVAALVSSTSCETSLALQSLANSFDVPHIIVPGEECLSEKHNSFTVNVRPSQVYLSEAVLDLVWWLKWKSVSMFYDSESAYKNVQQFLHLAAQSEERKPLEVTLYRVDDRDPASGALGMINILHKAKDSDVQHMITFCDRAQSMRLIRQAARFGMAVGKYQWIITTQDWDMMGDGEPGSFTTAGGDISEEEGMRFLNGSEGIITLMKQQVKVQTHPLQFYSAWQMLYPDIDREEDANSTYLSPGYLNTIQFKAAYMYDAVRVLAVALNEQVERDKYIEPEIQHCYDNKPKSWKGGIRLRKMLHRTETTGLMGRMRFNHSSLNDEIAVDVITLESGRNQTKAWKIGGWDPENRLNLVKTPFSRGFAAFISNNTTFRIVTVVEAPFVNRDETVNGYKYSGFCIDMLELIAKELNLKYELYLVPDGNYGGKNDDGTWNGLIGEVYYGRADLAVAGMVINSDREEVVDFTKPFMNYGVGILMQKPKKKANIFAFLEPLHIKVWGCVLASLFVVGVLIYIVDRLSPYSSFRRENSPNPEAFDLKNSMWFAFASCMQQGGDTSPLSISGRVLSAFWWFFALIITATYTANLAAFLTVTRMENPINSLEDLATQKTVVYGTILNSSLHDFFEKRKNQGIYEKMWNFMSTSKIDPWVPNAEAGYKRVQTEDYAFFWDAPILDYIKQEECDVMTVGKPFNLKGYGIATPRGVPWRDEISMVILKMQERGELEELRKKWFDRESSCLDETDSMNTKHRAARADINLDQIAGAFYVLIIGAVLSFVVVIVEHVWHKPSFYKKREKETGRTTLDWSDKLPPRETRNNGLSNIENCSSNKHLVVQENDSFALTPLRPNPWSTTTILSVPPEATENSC

WT RatGluD2 = molecular target: T2, WT RatGluD2 (Rattus norvegicus, UniProt Q63226); assay: Two-electrode voltage clamp in oocytes; assay type: cell-based; details: n = 4
T2 construct: expressed in transfected cells; host or cells: Xenopus laevis oocytes injected with mRNA
T2 sequence (Q63226 24-1007): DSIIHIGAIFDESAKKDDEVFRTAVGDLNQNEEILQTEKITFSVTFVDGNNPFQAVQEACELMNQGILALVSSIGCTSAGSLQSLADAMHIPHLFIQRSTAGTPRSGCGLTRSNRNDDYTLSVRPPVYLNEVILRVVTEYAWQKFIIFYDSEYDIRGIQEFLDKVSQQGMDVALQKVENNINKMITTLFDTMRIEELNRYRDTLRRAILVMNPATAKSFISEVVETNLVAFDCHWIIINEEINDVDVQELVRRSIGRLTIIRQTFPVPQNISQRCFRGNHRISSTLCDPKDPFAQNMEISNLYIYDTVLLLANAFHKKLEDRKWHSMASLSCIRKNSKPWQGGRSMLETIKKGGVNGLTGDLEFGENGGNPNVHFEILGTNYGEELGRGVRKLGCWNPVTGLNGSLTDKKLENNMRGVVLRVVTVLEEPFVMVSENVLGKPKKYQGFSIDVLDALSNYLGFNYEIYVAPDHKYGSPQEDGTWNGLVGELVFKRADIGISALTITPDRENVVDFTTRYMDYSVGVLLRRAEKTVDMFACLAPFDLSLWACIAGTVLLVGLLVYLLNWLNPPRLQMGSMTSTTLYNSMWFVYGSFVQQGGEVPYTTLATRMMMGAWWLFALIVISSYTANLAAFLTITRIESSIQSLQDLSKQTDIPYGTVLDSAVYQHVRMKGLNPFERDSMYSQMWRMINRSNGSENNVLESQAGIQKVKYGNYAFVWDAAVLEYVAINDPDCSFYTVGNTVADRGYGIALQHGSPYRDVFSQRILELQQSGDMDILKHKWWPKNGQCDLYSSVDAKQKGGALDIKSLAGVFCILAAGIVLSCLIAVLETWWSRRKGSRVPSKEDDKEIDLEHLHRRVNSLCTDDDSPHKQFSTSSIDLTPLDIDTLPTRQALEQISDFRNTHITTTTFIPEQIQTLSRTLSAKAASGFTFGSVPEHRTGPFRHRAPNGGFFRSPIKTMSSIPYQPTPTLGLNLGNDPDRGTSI

RatGluD2^Lc = molecular target: T3, RatGluD2^Lc (Rattus norvegicus, UniProt Q63226, A654T); assay: Two-electrode voltage clamp, inhibition of constitutive current in oocytes; details: each n = 4
T3 sequence (Q63226 24-1007 A654T): T2 sequence (Q63226 24-1007) with A631T
Description: (C) Left panels, example recordings of oocytes expressing A654T lurcher-mutant RatGluD2 (RatGluD2Lc) in response to indicated AMPA iGluR antagonists and D-serine. Dashed line, zero current baseline. Right panel, % inhibition at different oocytes (dots) and resulting means (columns).

RatGluD2^5x = molecular target: T4, RatGluD2^5x (Rattus norvegicus, UniProt Q63226, A686S/K694R/N720P/P806D/Y613F); assay: Two-electrode voltage clamp, responses to ligands in mutant-expressing oocytes; assay type: cell-based; details: ligands 30 mM
T4 construct: expressed in transfected cells; host or cells: Xenopus laevis oocytes injected with mRNA
T4 sequence (Q63226 24-1007 Y613F/A686S/K694R/N720P/P806D): T2 sequence (Q63226 24-1007) with Y590F, A663S, K671R, N697P, P783D
Description: (§1) If the 10 mutations discussed above drove the loss of function in vertebrate delta iGluRs, one might expect that the latter could be “reawakened” via active invertebrate delta iGluR-like mutations here. We therefore engineered mutant RatGluD2 iGluRs to contain at these positions the equivalent residues from starfish delta iGluRs. These mutants were RatGluD2^5x, containing Y613F, A686S, K694R, N720P, and P806D substitutions (pink in Fig. 6A), and RatGluD2^9x, additionally containing N763K, D753Q, Q786M, and R787V (cyan in Fig. 6A).
(§2) Fig. 6. AcaGluD-like mutations alter RatGluD2 receptor function. (A) D-serine bound RatGluD2 from X-ray structure PDB:2v3u ([13]). Selected amino acid residues are indicated, colored, shown as sticks, and labeled 5×, 9×, 10×, and/or Lc according to the multiple mutants they were incorporated into. 10× mutant included 10×, 9×, and 5× positions. 9× included 9× and 5×. 5× included only 5×. […] (B–E) Example current responses to different neurotransmitter ligands (30 mM) and to pore blocker pentamidine (Pent, 100 μM) in oocytes expressing indicated RatGluD2 mutants. The dashed line indicates zero current baseline. (F) Individual (dots) and mean (columns) responses to ligands in oocytes expressing indicated RatGluD2 mutants (n = 4 to 5).

RatGluD2^9x = molecular target: T5, RatGluD2^9x (Rattus norvegicus, UniProt Q63226, A686S/D753Q/K694R/N720P/N763K/P806D/Q786M/R787V/Y613F); assay: as above; assay type: cell-based; details: ligands 30 mM
T5 construct: expressed in transfected cells; host or cells: Xenopus laevis oocytes injected with mRNA
T5 sequence (Q63226 24-1007 Y613F/A686S/K694R/N720P/D753Q/N763K/Q786M/R787V/P806D): T2 sequence (Q63226 24-1007) with Y590F, A663S, K671R, N697P, D730Q, N740K, Q763M, R764V, P783D
Description: as §1, §2

SMILES | inhibition of GABA-gated current (AcaGluD) [%] | currents elicited when applied alone (AcaGluD) | enhancement of glutamate-gated currents (AcaGluD) | effect on oocytes expressing WT RatGluD2 (WT RatGluD2) | inhibition of constitutive currents (RatGluD2^Lc) [%] | further results
O=C(O)c1cc(=O)c2c(Cl)cc(Cl)cc2[nH]1 [5,7-dichlorokynurenic acid] | 11 ± 5 | – | – | – | – | –
C[C@@H](NCc1cc(Br)cc2[nH]c(=O)c(=O)[nH]c12)P(=O)(O)O [CGP-78608] | 9 ± 3 | – | – | – | – | –
N#Cc1cc2[nH]c(=O)c(=O)[nH]c2cc1[N+](=O)[O-] [CNQX] | 81 ± 4 | elicited no currents | no effect | no effect | 10 ± 0.2 | –
O=[N+]([O-])c1cc2nc(O)c(O)nc2cc1[N+](=O)[O-] [DNQX] | 53 ± 3 | elicited no currents | 34 ± 3% | no effect | 11 ± 0.2 | –
N[C@@H](CCC(=O)O)C(=O)O [glutamate] | – | – | – | – | – | EC50 (AcaGluD; 0 Ca2+, n = 4): ~30 mM; maximum ligand-gated current amplitude (AcaGluD; in the presence of 1.8 mM Ca2+): 5.8 ± 0.6 µA; maximum ligand-gated current amplitude (AcaGluD; nominally Ca2+-free solutions): 0.28 ± 0.02 µA; current response to ligand (RatGluD2^5x): no responses; current response to ligand (RatGluD2^9x): no responses
